Like-named read-outs stand apart in the source and are kept apart here.
What was measured:
[1] = test system: serum proteins; conditions: cited from earlier work; for % PB: marker molecules, training set from Goodman & Gilman 9th ed.
[2] = nephrotic syndrome, serum albumin concentrations halved; cited from earlier work
[3] = test system: serum proteins; experiment: Percent protein bound in serum (literature % PB data); conditions: binary class: highly protein bound (DTC) or not
Description: Drugs may bind to a variety of components in the blood, including albumin, a1-acid glyciprotein (AAG), lipoproteins, immunoglobulins, sex hormone binding globulins, and erythrocytes. […] Some foreknowledge of the protein binding characteristics of a molecule would help provide a better estimate of the pharmacodynamics and pharmacokinetics of the molecule. […] In addition, hepatic extraction is directly proportional to fu. […] The maximum oral bioavailability is directly related to the hepatic extraction ratio, which is in part dependent upon the fu. Disease states causing significant drop in serum albumin, e.g. nephrotic syndrome, where serum albumin concentrations are halved, cause a corresponding 2-fold decrease in half-life for clofibrate.
Using the principles of predictive model development described herein, a model for classifying compounds as highly protein bound (>90% bound) or not highly protein bound (<90% bound) was created. The model development methods are thus described below using a protein binding model as one example application. The model development methods of the invention may also be applied to the creation of other prediction models, such as models to predict CYP450 metabolism, inhibition, and activation, as well as p-Glycoprotein efflux.
The method next advances to the process block 14 where a reference (“training”) set of molecules is classified according to the property of interest. The larger the training set of molecules is (>50 preferably), the better the method should perform. Preferably each of the molecules in the training set has a known binary classification for the property of interest. […] For illustration, an example training set of ten molecules for a protein binding prediction model may be as follows:
The method next advances to a process block 16, where a subset of the training set of molecules is chosen such that the subset includes the molecules in the training set that have the desired property of interest. In one embodiment, molecules in this subset are referred to as Desired Target Class (“DTC”) molecules.
The above simplified example includes 10 training dataset molecules. […] The following compounds were excluded because they lacked % PB values or belonged to an unusual structural class: atracurium, auranofin, azathioprine, bleomycin, bretylium, busulfan, capreomycin, carboplatin, carmustine, cisplatin, clemastine, dobutamine, enoxacin, ethanol, foscarnet, gold sodium thiomalate, isosorbide-5-mononitrate, isosorbide dinitrate, levodopa, levonorgestrel, methohexital, methylprednisolone, nalbuphine, naloxone, neostigmine, nitroglycerin, pancuronium, pipecuronium, prednisolone, prednisone, pyridostigmine, scopolamine, tubocurarine, vecuronium.
A test dataset was also assembled to verify model performance.

[4] = molecular target: Human serum albumin (HSA) (Homo sapiens, UniProt P02768); conditions: site I warfarin site, site II benzodiazepines/NSAIDS site; cited from earlier work
[5] = example training set of ten molecules
[6] = training set (Goodman & Gilman) or PDR test set

Human serum albumin (HSA), sequence (P02768 25-609): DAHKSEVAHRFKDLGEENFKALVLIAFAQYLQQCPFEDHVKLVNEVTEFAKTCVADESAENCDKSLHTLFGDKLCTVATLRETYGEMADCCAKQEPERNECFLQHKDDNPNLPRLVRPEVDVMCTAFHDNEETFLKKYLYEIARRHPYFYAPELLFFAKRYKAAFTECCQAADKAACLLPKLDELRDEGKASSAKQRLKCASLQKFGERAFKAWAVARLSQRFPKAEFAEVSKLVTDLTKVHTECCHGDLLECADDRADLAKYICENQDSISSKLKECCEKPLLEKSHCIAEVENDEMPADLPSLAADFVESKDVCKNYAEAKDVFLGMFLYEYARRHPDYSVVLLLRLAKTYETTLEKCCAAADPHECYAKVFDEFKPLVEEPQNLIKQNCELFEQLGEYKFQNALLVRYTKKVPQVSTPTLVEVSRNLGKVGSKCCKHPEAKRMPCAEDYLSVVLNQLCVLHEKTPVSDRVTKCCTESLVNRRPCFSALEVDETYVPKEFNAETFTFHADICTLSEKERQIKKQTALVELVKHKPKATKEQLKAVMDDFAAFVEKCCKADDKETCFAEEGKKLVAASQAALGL

Row | SMILES | % PB [1] [%] | also measured
1 | CC1=C(CC(=O)O)c2cc(F)ccc2/C1=C\c1ccc([S+](C)[O-])cc1 (stereo not shown) | 94 | 
2 | CCOC(=O)C1=C(COCCN)NC(C)=C(C(=O)OC)C1c1ccccc1Cl (stereo not shown) [AMLODIPINE] | 93 | 
3 | CCOC(=O)[C@H](CCc1ccccc1)N[C@H]1CCc2ccccc2N(CC(=O)O)C1=O [BENAZEPRIL] | 97 | 
4 | CCCCNc1cc(C(=O)O)cc(S(N)(=O)=O)c1Oc1ccccc1 [BUMETANIDE] | 99 | 
5 | CCOC(=O)C(C)(C)Oc1ccc(Cl)cc1 [CLOFIBRATE] | 96.5 | decrease in half-life [2]: 2 fold
6 | Clc1cccc(Cl)c1N=C1NCCN1 [CLONIDINE] |  | % Protein Bound [1, 5]: 30.0%; Classification [3]: 0 (not highly protein bound (<90% bound))
7 | O=C(O)C1N=C(c2ccccc2)c2cc(Cl)ccc2NC1=O (stereo not shown) [CLORAZEPATE] | 96.9 | 
8 | CN1C(=O)CN=C(c2ccccc2)c2cc(Cl)ccc21 [DIAZEPAM] |  | Classification [3]: 1 (highly protein bound (>90% bound))
9 | O=C(O)c1cc(-c2ccc(F)cc2F)ccc1O [DIFLUNISAL] | 99.9 | 
10 | CCc1cccc2c3c([nH]c12)C(CC)(CC(=O)O)OCC3 (stereo not shown) [ETODOLAC] | 99.1 | 
11 | CCOC(=O)C1=C(C)NC(C)=C(C(=O)OC)C1c1cccc(Cl)c1Cl (stereo not shown) [FELODIPINE] | 99.6 | 
12 | CCN(CC)CCN1C(=O)CN=C(c2ccccc2F)c2cc(Cl)ccc21 [FLURAZEPAM] | 96.6 | 
13 | CC(C(=O)O)c1ccc(-c2ccccc2)c(F)c1 (stereo not shown) [FLURBIPROFEN] | 99.5 | % Protein Bound [1, 5]: 99.5%; Classification [3]: 1 (highly protein bound (>90% bound))
14 | NS(=O)(=O)c1cc(C(=O)O)c(NCc2ccco2)cc1Cl [FUROSEMIDE] | 98.8 | 
15 | Cc1cnc(C(=O)NCCc2ccc(S(=O)(=O)NC(=O)NC3CCCCC3)cc2)cn1 [GLIPIZIDE] | 98.4 | 
16 | COc1ccc(Cl)cc1C(=O)NCCc1ccc(S(=O)(=O)NC(=O)NC2CCCCC2)cc1 [GLYBURIDE] | 99.8 | 
17 | NS(=O)(=O)c1cc2c(cc1Cl)NCNS2(=O)=O [HYDROCHLOROTHIAZIDE] |  | % Protein Bound [1, 5]: 58.0%; Classification [3]: 0 (not highly protein bound (<90% bound))
18 | CN(C)CCCN1c2ccccc2CCc2ccccc21 [IMIPRAMINE] | 90.1 | 
19 | COC(=O)C1=C(C)NC(C)=C(C(=O)OC(C)C)C1c1cccc2nonc12 (stereo not shown) [ISRADIPINE] | 97 | 
20 | CCC(C)n1ncn(-c2ccc(N3CCN(c4ccc(OCC5COC(Cn6cncn6)(c6ccc(Cl)cc6Cl)O5)cc4)CC3)cc2)c1=O (stereo not shown) [ITRACONAZOLE] | 99.8 | 
21 | CC(=O)N1CCN(c2ccc(OCC3COC(Cn4ccnc4)(c4ccc(Cl)cc4Cl)O3)cc2)CC1 (stereo not shown) [KETOCONAZOLE] | 99 | 
22 | O=C(c1ccccc1)c1ccc2n1CCC2C(=O)O (stereo not shown) [KETOROLAC] | 99.2 | 
23 | NCCCC[C@H](N[C@@H](CCc1ccccc1)C(=O)O)C(=O)N1CCC[C@H]1C(=O)O [LISINOPRIL] |  | Classification [3]: 0 (not highly protein bound (<90% bound))
24 | O=C1Nc2ccc(Cl)cc2C(c2ccccc2Cl)=NC1O (stereo not shown) [LORAZEPAM] | 91 | 

Row | SMILES | % PB [1] [%] | also measured
25 | CN(C)c1ccc(O)c2c1C[C@H]1C[C@H]3[C@H](N(C)C)C(O)=C(C(N)=O)C(=O)[C@@]3(O)C(O)=C1C2=O [MINOCYCLINE] |  | % Protein Bound [1, 5]: 76.0%; Classification [3]: 0 (not highly protein bound (<90% bound))
26 | COc1ccc2cc(CCC(C)=O)ccc2c1 [NABUMETONE] | 99 | 
27 | COc1ccc2cc([C@H](C)C(=O)O)ccc2c1 [NAPROXEN] |  | Classification [3]: 1 (highly protein bound (>90% bound))
28 | COC(=O)C1=C(C)NC(C)=C(C(=O)OCCN(C)Cc2ccccc2)C1c1cccc([N+](=O)[O-])c1 (stereo not shown) [NICARDIPINE] | 99 | 
29 | COCCOC(=O)C1=C(C)NC(C)=C(C(=O)OC(C)C)C1c1cccc([N+](=O)[O-])c1 (stereo not shown) [NIMODIPINE] | 98 | 
30 | CCOC(=O)C1=C(C)NC(C)=C(C(=O)OC)C1c1cccc([N+](=O)[O-])c1 (stereo not shown) [NITRENDIPINE] | 98 | 
31 | O=C1CN=C(c2ccccc2)c2cc(Cl)ccc2N1 [NORDAZEPAM] | 97.5 | 
32 | O=C1Nc2ccc(Cl)cc2C(c2ccccc2)=NC1O (stereo not shown) [OXAZEPAM] | 98.8 | 
33 | Fc1ccc([C@@H]2CCNC[C@H]2COc2ccc3c(c2)OCO3)cc1 [PAROXETINE] | 95 | % Protein Bound [1, 6]: 95%
34 | O=c1[nH]c2ccccc2n1C1CCN(CCCC(c2ccc(F)cc2)c2ccc(F)cc2)CC1 [PIMOZIDE] | 99 | 
35 | CN1C(C(=O)Nc2ccccn2)=C(O)c2ccccc2S1(=O)=O [PIROXICAM] | 98.5 | 
36 | O=C1CN=C(c2ccccc2)c2cc(Cl)ccc2N1CC1CC1 [PRAZEPAM] | 95.5 | 
37 | CNCCCC1c2ccccc2C=Cc2ccccc21 [PROTRIPTYLINE] | 92 | 
38 | CCc1nc(N)nc(N)c1-c1ccc(Cl)cc1 [PYRIMETHAMINE] |  | % Protein Bound [1, 5]: 87.0%; % Protein Bound [1, 6]: 87%; Classification [3]: 0 (not highly protein bound (<90% bound))
39 | CC(N)C12CC3CC(CC(C3)C1)C2 (stereo not shown) [RIMANTADINE] |  | % Protein Bound [1, 5]: 40.0%; Classification [3]: 0 (not highly protein bound (<90% bound))
40 | CC(C(=O)O)c1ccc(C(=O)c2cccs2)cc1 (stereo not shown) [Suprofen] |  | HSA binding site [4]: binds to HSA site II
41 | CN1C(=O)C(O)N=C(c2ccccc2)c2cc(Cl)ccc21 (stereo not shown) [TEMAZEPAM] | 97.6 | 
42 | Cc1ccc(C(=O)c2ccc(CC(=O)O)n2C)cc1 [TOLMETIN] | 99.6 | 
43 | O=c1n(CCCN2CCN(c3cccc(Cl)c3)CC2)nc2ccccn12 [TRAZODONE] | 93 | 
44 | CCCC(CCC)C(=O)O [Valproic acid] |  | HSA binding site [4]: bind to both HSA Sites I and II
45 | CC(=O)CC(c1ccccc1)c1c(O)c2ccccc2oc1=O (stereo not shown) [WARFARIN] |  | Classification [3]: 1 (highly protein bound (>90% bound))
46 | Cc1ccc(-c2nc3ccc(C)cn3c2CC(=O)N(C)C)cc1 [ZOLPIDEM] | 92 | 
47 | COC(=O)[C@H](c1ccccc1Cl)N1CCc2sccc2C1 [clopidogrel] |  | % Protein Bound [1, 6]: 98%
48 | COC(=O)C(C)c1ccc(C(=O)c2cccs2)cc1 (stereo not shown) [suprofen methyl ester] |  | HSA binding site [4]: binds to HSA site I

Reference: patent US7146278B2, “Method of selecting marker molecules for prediction of molecular activity” (Accelrys Software Inc., priority 2001, dated 2006)
